What was measured:
SRSF protein kinase 1 = SRSF protein kinase 1 (Homo sapiens, UniProt Q96SB4); experiment: Selectivity interaction (KinomeScan (DiscoverX)) EUB0000595a SRPK1; conditions: at 10 µM
[1] = biological target: T1, Homeodomain-interacting protein kinase 4 (Homo sapiens) (UniProt Q8NE63); experiment: Selectivity interaction (KinomeScan (DiscoverX)) EUB0000045b HIPK4
T1 sequence (whole entry): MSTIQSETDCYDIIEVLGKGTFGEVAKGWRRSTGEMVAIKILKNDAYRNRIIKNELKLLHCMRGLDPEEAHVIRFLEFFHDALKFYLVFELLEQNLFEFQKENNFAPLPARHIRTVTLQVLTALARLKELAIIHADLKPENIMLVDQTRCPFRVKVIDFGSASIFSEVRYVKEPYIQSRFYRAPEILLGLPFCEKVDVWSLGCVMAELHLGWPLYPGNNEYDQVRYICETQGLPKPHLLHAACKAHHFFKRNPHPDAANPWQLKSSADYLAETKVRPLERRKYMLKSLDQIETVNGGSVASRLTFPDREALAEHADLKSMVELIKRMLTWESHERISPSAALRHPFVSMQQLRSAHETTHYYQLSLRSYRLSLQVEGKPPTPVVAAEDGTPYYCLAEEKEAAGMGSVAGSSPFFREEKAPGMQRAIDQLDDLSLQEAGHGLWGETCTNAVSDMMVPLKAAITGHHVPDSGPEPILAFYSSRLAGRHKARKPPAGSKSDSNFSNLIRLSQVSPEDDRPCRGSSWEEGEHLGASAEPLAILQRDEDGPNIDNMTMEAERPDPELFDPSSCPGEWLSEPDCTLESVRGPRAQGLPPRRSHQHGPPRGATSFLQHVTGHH

[2] = biological target: Serine/threonine-protein kinase mTOR (Homo sapiens, UniProt P42345); experiment: Selectivity interaction (KinomeScan (DiscoverX)) EUB0000695a MTOR; conditions: at 100 nM
[3] = biological target: Cell division cycle 7-related protein kinase (Homo sapiens, UniProt O00311); experiment: Selectivity interaction (LanthaScreen Eu Kinase Binding Assay) EUB0001632a CDC7; conditions: at 10 µM
Chain of Cell division cycle 7-related protein kinase (O00311 whole entry, looked up): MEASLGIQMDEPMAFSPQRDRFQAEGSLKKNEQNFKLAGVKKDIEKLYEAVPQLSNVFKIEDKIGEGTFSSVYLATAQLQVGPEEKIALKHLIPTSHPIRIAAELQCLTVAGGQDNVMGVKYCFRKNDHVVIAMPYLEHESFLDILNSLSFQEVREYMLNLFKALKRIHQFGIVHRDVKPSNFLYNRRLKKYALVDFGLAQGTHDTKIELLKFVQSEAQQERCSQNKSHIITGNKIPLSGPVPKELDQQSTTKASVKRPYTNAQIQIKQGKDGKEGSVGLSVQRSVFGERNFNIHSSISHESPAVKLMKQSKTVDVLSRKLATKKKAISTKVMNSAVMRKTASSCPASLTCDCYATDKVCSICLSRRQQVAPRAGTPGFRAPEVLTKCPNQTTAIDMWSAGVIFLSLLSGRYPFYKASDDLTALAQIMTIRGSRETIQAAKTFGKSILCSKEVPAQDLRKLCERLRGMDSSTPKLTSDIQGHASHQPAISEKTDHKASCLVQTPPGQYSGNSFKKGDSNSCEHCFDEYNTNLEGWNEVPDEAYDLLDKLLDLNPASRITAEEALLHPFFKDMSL

[4] = biological target: Cyclin-dependent kinase 5 (Homo sapiens, UniProt Q00535); experiment: Selectivity interaction (KinomeScan (DiscoverX)) EUB0000666a CDK5; conditions: at 10 µM
Chain of Cyclin-dependent kinase 5 (Q00535 whole entry, looked up): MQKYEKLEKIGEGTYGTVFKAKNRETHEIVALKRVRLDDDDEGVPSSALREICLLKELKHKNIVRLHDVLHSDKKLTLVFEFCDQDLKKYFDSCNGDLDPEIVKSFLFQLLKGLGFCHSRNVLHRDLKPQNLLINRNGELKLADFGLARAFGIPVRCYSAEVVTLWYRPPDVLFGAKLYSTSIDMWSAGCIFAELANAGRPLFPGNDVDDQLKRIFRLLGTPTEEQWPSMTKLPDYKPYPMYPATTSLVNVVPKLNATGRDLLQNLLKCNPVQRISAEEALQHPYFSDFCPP

[5] = biological target: Tyrosine-protein kinase Blk (Homo sapiens) (UniProt P51451); experiment: Selectivity interaction (Kinase screening (Upstate/Millipore)) EUB0000604a BLK
Chain of Tyrosine-protein kinase Blk (Homo sapiens) (P51451 2-505 limits assumed): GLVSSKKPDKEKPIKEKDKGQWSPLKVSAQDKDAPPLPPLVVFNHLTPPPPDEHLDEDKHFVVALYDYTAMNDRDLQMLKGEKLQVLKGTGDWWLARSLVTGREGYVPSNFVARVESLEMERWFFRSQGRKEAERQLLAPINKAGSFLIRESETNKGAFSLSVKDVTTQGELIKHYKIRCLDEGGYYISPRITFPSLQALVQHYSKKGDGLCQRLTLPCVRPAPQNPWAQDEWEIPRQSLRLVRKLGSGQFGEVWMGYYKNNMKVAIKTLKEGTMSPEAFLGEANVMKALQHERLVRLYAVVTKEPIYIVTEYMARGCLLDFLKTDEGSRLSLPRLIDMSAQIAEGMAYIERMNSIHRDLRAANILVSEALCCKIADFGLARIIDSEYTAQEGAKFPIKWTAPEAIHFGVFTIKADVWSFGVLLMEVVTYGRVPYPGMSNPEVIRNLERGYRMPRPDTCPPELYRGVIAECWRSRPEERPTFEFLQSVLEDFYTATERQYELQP

[6] = biological target: Serine/threonine-protein kinase PLK1 (Homo sapiens, UniProt P53350); experiment: Selectivity interaction (ProQinase) EUB0000171b PLK1
Chain of Serine/threonine-protein kinase PLK1 (P53350 whole entry): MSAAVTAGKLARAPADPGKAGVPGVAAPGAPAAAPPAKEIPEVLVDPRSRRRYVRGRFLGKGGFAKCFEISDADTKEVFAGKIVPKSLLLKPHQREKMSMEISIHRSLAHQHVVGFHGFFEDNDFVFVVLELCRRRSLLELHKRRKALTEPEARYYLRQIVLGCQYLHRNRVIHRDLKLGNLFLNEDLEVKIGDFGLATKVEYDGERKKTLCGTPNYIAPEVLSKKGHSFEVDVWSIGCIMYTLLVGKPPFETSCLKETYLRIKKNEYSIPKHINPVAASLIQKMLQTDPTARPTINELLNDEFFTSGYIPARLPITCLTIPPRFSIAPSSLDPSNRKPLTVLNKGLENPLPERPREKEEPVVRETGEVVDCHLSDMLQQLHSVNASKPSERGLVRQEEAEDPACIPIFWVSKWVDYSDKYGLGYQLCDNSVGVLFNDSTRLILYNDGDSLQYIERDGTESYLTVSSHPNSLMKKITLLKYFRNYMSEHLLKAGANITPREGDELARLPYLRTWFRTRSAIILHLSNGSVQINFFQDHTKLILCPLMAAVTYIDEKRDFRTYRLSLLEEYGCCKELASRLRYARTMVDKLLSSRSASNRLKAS

[7] = biological target: Interleukin-1 receptor-associated kinase 1 (Homo sapiens) (UniProt P51617); experiment: Selectivity interaction (ActivX KiNativ screen (ex vivo kinase selectivity in human PBMCs)) EUB0001619a IRAK1; type: cell-based; conditions: PBMC, at 1 µM
[8] = biological target: Serine/threonine-protein kinase SBK1 (Homo sapiens) (UniProt Q52WX2); experiment: Selectivity interaction (KinomeScan (DiscoverX)) EUB0001619a SBK1; conditions: at 1 µM
Chain of Serine/threonine-protein kinase SBK1 (Homo sapiens) (Q52WX2 whole entry): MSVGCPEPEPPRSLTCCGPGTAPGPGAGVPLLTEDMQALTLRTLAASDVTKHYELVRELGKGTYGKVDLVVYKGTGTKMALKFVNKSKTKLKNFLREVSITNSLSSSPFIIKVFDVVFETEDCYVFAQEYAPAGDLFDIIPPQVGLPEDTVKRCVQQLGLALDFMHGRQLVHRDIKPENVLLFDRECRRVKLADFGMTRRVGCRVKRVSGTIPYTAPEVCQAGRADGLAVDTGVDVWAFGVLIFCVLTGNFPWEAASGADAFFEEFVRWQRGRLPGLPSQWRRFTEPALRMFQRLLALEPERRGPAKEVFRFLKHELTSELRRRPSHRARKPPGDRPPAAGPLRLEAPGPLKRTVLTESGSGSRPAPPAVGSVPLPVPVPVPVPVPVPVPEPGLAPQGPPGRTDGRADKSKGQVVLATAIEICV

[9] = biological target: Serine/threonine-protein kinase 38 (Homo sapiens) (UniProt Q15208); experiment: Selectivity interaction (ActivX KiNativ screen (ex vivo kinase selectivity in human PBMCs)) EUB0001619a STK38; type: cell-based; conditions: PBMC, at 1 µM
Chain of Serine/threonine-protein kinase 38 (Homo sapiens) (Q15208 2-465 limits assumed): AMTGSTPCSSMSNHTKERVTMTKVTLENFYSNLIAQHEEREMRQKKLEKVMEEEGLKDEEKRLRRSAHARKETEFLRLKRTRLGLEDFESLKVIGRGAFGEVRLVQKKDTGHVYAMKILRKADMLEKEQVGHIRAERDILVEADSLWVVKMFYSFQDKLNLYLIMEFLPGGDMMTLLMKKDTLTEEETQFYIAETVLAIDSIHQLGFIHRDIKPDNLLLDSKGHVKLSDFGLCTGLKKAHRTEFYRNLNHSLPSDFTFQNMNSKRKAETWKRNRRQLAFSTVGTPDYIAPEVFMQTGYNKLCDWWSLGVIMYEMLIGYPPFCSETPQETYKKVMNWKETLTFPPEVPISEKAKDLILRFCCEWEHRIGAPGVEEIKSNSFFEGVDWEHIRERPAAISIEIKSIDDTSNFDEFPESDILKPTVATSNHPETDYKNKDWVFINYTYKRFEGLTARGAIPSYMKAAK

[10] = biological target: T2, Serine/threonine-protein kinase Nek2 (Homo sapiens) (UniProt P51955); experiment: Selectivity interaction (SelectScreen profiling (Invitrogen)) EUB0000607a NEK2; conditions: at 2 µM
T2 sequence (whole entry): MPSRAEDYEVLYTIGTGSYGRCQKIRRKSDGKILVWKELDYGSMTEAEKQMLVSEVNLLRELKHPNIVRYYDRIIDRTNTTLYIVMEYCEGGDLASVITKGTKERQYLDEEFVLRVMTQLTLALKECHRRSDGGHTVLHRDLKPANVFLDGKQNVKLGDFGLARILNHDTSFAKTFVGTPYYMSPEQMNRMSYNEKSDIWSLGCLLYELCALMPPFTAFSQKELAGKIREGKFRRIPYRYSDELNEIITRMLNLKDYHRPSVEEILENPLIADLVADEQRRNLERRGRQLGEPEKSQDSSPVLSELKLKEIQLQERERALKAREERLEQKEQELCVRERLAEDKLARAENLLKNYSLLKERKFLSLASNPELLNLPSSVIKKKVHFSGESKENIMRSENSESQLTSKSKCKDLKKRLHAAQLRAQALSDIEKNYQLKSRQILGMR

[11] = biological target: Phosphatidylinositol 4-kinase beta (Homo sapiens, UniProt Q9UBF8); experiment: Selectivity interaction (ActivX KiNativ screen (kinase selectivity in THP-1 cell lysates)) EUB0000639a PI4KB; type: subcellular; conditions: lysate, at 0.01 µM
Chain of Phosphatidylinositol 4-kinase beta (Q9UBF8 2-816 limits assumed): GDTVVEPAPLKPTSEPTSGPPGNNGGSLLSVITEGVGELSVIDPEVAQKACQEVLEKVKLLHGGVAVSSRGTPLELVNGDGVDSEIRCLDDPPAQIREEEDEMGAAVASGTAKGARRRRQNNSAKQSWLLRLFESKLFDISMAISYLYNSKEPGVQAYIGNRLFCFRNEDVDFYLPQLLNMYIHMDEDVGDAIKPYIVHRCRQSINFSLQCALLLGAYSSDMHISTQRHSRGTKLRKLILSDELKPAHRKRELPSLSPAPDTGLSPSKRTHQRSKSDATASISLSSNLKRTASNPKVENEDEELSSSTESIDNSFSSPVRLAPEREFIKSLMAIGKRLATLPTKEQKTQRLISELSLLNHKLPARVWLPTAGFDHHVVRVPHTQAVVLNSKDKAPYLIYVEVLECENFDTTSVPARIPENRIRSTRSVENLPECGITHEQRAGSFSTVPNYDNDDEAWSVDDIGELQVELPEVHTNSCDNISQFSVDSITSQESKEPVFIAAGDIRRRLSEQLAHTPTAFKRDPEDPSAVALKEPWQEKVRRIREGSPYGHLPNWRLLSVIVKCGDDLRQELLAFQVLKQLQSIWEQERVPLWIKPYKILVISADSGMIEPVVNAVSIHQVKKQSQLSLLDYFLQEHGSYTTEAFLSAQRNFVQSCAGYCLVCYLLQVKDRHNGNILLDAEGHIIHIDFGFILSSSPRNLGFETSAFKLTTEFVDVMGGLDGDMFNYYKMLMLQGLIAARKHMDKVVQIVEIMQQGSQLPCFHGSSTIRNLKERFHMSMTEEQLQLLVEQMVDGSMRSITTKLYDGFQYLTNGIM

[12] = biological target: Tyrosine-protein kinase Yes (Homo sapiens) (UniProt P07947); experiment: Selectivity interaction (ActivX KiNativ screen (kinase selectivity in THP-1 cell lysates)) EUB0000639a YES1; type: subcellular; conditions: lysate
Chain of Tyrosine-protein kinase Yes (Homo sapiens) (P07947 2-543 limits assumed): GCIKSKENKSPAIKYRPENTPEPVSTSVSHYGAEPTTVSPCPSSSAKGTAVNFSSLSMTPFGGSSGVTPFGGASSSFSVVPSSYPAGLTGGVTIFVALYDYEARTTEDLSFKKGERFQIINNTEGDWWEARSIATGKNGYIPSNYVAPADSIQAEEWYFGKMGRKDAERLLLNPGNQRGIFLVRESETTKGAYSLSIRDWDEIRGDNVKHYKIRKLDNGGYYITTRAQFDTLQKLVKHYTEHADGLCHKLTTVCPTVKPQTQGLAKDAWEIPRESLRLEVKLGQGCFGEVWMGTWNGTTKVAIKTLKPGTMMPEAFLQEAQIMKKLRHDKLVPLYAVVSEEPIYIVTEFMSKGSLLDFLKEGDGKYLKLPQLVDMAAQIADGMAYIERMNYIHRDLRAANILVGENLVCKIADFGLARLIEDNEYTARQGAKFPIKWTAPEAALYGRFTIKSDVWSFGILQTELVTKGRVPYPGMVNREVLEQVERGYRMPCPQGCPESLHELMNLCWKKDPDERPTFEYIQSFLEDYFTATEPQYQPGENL

[13] = biological target: T3, Tyrosine-protein kinase Tec (Homo sapiens) (UniProt P42680); experiment: Selectivity interaction (ActivX KiNativ screen (kinase selectivity in THP-1 cell lysates)) EUB0000639a TEC; type: subcellular; conditions: lysate
T3 sequence (whole entry): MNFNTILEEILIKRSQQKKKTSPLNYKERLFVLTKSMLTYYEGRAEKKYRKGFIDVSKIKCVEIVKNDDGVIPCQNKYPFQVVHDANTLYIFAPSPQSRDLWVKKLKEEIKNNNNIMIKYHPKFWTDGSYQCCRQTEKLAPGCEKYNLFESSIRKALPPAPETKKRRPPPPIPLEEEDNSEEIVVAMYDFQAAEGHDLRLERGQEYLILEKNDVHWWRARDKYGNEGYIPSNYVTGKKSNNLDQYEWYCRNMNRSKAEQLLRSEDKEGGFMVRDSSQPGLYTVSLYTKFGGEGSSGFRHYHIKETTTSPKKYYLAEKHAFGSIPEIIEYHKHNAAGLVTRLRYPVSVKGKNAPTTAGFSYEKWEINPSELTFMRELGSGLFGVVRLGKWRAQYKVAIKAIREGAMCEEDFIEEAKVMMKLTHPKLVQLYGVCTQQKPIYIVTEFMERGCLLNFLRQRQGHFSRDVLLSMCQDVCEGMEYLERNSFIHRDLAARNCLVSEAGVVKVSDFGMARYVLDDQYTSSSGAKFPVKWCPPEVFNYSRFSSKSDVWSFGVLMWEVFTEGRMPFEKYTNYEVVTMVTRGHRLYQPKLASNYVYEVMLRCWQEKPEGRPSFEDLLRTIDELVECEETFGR

[14] = tested on: Tyrosine-protein kinase ABL1 (Homo sapiens), P00519 [Q252H]; experiment: Selectivity interaction (KinomeScan (DiscoverX)) EUB0000092b ABL1; conditions: at 10 µM

Chain of SRSF protein kinase 1 (Q96SB4 whole entry): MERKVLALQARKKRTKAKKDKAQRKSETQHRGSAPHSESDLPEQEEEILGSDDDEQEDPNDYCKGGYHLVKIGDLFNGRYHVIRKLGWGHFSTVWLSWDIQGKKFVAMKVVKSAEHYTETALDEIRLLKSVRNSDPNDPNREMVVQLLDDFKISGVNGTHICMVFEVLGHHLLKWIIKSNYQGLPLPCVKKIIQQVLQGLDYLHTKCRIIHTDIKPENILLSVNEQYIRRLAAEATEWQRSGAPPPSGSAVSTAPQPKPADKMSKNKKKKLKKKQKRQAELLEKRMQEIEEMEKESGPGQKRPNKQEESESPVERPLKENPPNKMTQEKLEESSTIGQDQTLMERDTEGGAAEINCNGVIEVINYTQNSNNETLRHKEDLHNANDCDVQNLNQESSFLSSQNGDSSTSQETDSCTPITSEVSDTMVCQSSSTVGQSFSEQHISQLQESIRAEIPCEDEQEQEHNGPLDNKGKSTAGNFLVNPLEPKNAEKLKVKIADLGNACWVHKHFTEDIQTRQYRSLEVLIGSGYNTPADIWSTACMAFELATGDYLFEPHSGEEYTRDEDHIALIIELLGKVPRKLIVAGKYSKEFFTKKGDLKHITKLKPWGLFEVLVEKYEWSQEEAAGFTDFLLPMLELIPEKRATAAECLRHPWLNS

Q: How did the % of control (SRSF protein kinase 1) turn out when `COCC(=O)NC/C=C/c1ccc2ncnc(Nc3ccc(Oc4ccc(C)nc4)c(C)c3)c2c1` [CP-724714] was run?
A: 100%

Q: What does the source list for `C=CC(=O)Nc1cc(-n2c(=O)ccc3cnc4ccc(-c5ccc(NS(C)(=O)=O)cc5)cc4c32)ccc1C`?
A: % of control ([1]; at 1 µM): 100%; % of control ([1]; at 10 µM): 71%

Q: `Cc1cc(F)c(C(=O)Nc2cccc(-c3nncn3C(C)C)n2)cc1-n1cnc(C2CC2)c1` was tested. Which % of control [2] did it give?
A: 100%

Q: For `Cn1cc(-n2cnc3c(NCc4nc5cc(Cl)c(Cl)cc5[nH]4)nc(N4CCOCC4)nc32)cn1`, which % of inhibition [3] is on record?
A: -5.05%

Q: `O=C(NOC[C@H](O)CO)c1ccc(F)c(F)c1Nc1ccc(I)cc1F` was tested. Which % of control [4] did it give?
A: 100%

Q: For `Cc1cnc(Nc2ccc(F)cc2Cl)nc1-c1c[nH]c(C(=O)N[C@H](CO)c2cccc(Cl)c2)c1`, which % of inhibition [5] is on record?
A: 7%

Q: Which % of control ([6]; at 1 µM) does the source give for `C=CC(=O)Nc1cccc(C(=O)Nc2ccc(Nc3cc(-c4[nH]c(SC)nc4C)ccn3)cc2)c1` here?
A: 98%

Q: And the % of control ([6]; at 5 µM)?
A: 96%

Q: What does the source list for `N#Cc1cccc(-c2c[nH]c3ncnc(N4CCOCC4)c23)c1`?
A: % of inhibition [7]: 2%; % of control [8]: 100%; % of inhibition [9]: 3%

Q: Which % of inhibition [10] does the source give for `CNC(=O)Nc1ccc(-c2nc(N3CC4CCC(C3)O4)c3cnn(C4CCC5(CC4)OCCO5)c3n2)cc1` here?
A: 10%

Q: Which % of inhibition [11] does the source give for `CC[C@@H]1[C@H](F)C(=O)N[C@@H]1COc1nccc2cc(C(N)=O)c(OC)cc12` [ZIMLOVISERTIB] here?
A: 1.7%

Q: What about the % of inhibition ([12]; at 0.01 µM) of the same molecule?
A: -8.5%

Q: And the % of inhibition ([12]; at 0.04 µM)?
A: -0.2%

Q: What about the % of inhibition ([12]; at 0.2 µM) of the same molecule?
A: 0.7%

Q: And the % of inhibition ([12]; at 1 µM)?
A: -11%

Q: And the % of inhibition ([12]; at 5 µM)?
A: -13.3%

Q: And the % of inhibition ([13]; at 0.01 µM)?
A: 6%

Q: And the % of inhibition ([13]; at 0.04 µM)?
A: 0%

Q: And the % of inhibition ([13]; at 0.2 µM)?
A: -2.1%

Q: And the % of inhibition ([13]; at 1 µM)?
A: -3.6%

Q: And the % of inhibition ([13]; at 5 µM)?
A: -0.9%

Q: `CCC(=O)N1CCN(c2ccc(-n3c(=O)ccc4cnc5ccc(-c6cnc7ccccc7c6)cc5c43)cc2C(F)(F)F)CC1` was tested. Which % of control [14] did it give?
A: 99%

Reference: ChEMBL document CHEMBL5465560, “Selectivity Literature for EUbOPEN Chemogenomic Library” (2024)
